The subject of this experiment is primary cultured hippocampal neurons. Put plainly: LC3-eGFP puncta formation assay (autophagy promotion). Format: cell-based, rat. The note with it: rapamycin and HN-1703 at 0.1 μM and 0.5 μM respectively, 12 hours; FIG. 3A. On the procedure: Primary neurons culture was performed from the hippocampus of rat (SD, Orient Bio) embryonic 16-day (E16) embryos. The left and right hemispheres of the extracted brain were separated using sterile tweezers under a dissecting microscope, the meninges were peeled off, the hippocampus was cut with No. 55 tweezers, and neural progenitor cells were mechanically dissolved in a Ca^2+/Mg^2+-free HBSS (Invitrogen) solution by pipetting with a pasteur pipette (Falcon, 354647). Undissolved tissues or vascular cells were settled, and then a supernatant was taken to measure the cell number and the isolated cells were seeded at 19,000 cells/cm^2 in a 35 mm culture dish coated with poly-L-ornithine (sigma, P3655) and fibronectin (sigma, F4759). The cells were cultured using a serum-free N2 medium (growth medium) added with 10 ng/mL bFGF (Invitrogen) in a 5% CO2 incubator, and the culture medium was replaced after 6 hours and after 24 hours. After 2 days, when the cells proliferated twice or more, subculture was performed.
After 3 days of the primary neural progenitor cell culture, a process of subculturing with 0.05% trypsin was repeated twice, and DNA electroporation or transfection was performed before seeding. […]
The number of cell nuclei labeled with DAPI and the number of cells expressing green fluorescence by overlapping LC3-eGFP expression and DAPI labeling were measured. The number of eGFP-LC3 puncta was measured per cell, and the signal intensity of puncta was measured using a confocal laser microscope program. […]
The autophagy promoting effect of HN-1703 in neurons differentiated by culturing hippocampal neural progenitor cells from rat embryos (E16) was evaluated by performing an LC3-eGFP puncta formation assay. The neural progenitor cells into which an LC3-eGFP recombinant gene was introduced by electroporation were differentiated into neurons, treated with rapamycin and HN-1703 at concentrations of 0.1 μM and 0.5 μM for 12 hours, respectively, and the puncta of LC3-GFP were scanned with a confocal laser microscope (Zeiss, LSM800) to measure the fluorescence intensity of LC3-eGFP and the number of puncta, and the results were illustrated in FIG. 3. Specifically, FIG. 3A illustrates confocal scanning micrographs of LC3-eGFP puncta formation after treated primary cultured hippocampal neurons overexpressing an LC3-eGFP fusion protein with HN-1703, and quantifying the number and fluorescence intensity of LC3-eGFP puncta per cell, and FIG. 3B illustrates a result of LC3-II turnover analysis.

The source of these data is patent US12605358B2, “Composition for preventing or treating nervous system diseases comprising compound that inhibits mTOR signaling pathway as active ingredient” (ALIAD BIOPHARMA, priority 2021, dated 2026).

On to `CO[C@H]1C[C@@H]2CC[C@@H](C)[C@@](O)(O2)C(=O)C(=O)N2CCCC[C@H]2C(=O)O[C@H]([C@H](C)C[C@@H]2CC[C@@H](O)[C@H](OC)C2)CC(=O)[C@H](C)/C=C(\C)[C@@H](O)[C@@H](OC)C(=O)[C@H](C)C[C@H](C)/C=C/C=C/C=C/1C` [rapamycin, reference compound], for which the “increase of the number of LC3-eGFP puncta compared to a control group” value worked out at 49% and the “increase of the signal intensity of LC3-eGFP puncta compared to the control group” value turned out to be 15%.
